Values quoted from earlier work as cited in US20220400668A1, “MICROEMULSION COMPOSITIONS OF TOPRAMEZONE” (BASF SE, priority 2018, published 2022).

Conditions: 25° C.

Which solubility in water does the source give for `Cc1c(C(=O)c2cnn(C)c2O)ccc(S(C)(=O)=O)c1C1=NOCC1` [topramezone, 4-[3-(4,5-dihydro-1,2-oxazol-3-yl)-2-methyl-4-methylsulfonylbenzoyl]-2-methyl-1H-pyrazol-3-one] here?
Its solubility in water is “about 0.305 g/L”.
